The values below come from patent US20250127723A1, “PHARMACEUTICAL COMPOSITION COMPRISING LARGE PHYSIOLOGICALLY ACTIVE SUBSTANCE AND EXCIPIENT” (priority 2021, published 2025).

Structures can show the parent of a compound that is named as a salt. Bridge positions count the residues as written; N and C are the ends. Square brackets hold non-standard residues; d marks the D form. Side chains are listed from the residue outwards. Ends that are not written are not given here. Lys‑B1 = not defined here; EG2 = not defined here; Aib = CC(C)(N)C(=O)O

Series [1] is described as follows: Body weight change 24 hours after single oral administration of amylin derivatives. As to conditions: mice, bile acid absorption accelerator formulation. The series is classed as in vivo. The procedure:
After a single oral administration of a formulation using a combination of a large physiologically active substance and excipients to mice, body weight changes were confirmed for 24 hours.

The test system of a further series is Caco-2 cells. The procedure:
The cytotoxicity of excipients was evaluated using Caco-2 cells using the following method. First, to check the amount of intracellular accumulation, Caco-2 cells were distributed in a 96-well plate at 1×10^5 per well and cultured in a CO2 incubator at a temperature of 37° C. The culture solution from each well is removed and replacement by a new culture medium is performed. After that, […] of the prepared excipient was added and this was cultured in a CO2 incubator at 37° C. After 2 hours, each well was treated with 100 µL of luciferase reagent (Promega, #G7571) and incubated at room temperature. After 10 minutes, the luminescence value of each well was measured. […] [formula]

The test system of series [2] is Caco-2 cell monolayer. The series is classed as in vitro ADME. The protocol:
Using the Caco-2 cell monolayer, changes in the permeability of markers for each permeation pathway due to excipients were evaluated using the following method. First, to form a Caco-2 cell monolayer, 1.5×10^5 cells per well were dispensed in a 12-Transwell plate and cultured for 3 to 4 weeks under 37° C. CO2 conditions. For the first week, the culture medium was changed once every two days, and thereafter, the culture medium was changed every three days. In the experiment, samples between 3 and 4 weeks after seeding were used. To verify the formation of a cell monolayer, TEER values and Lucifer yellow values were measured, and only cell monolayer membranes having a TEER value of 300 Ω·cm^2 or more and a measured transmittance of Lucifer yellow within 3% were used in the test. After the Transwells to be used for each test were washed using transport media (HBSS) and incubated in a 37° C. CO2 incubator for 1 hour, 500 μL of bile acid derivatives and permeability marker were added to the apical side, and 1.5 mL of drug-free transport media was treated onto the basolateral side, and incubation was performed for 2 hours in a 37° C. CO2 incubator thereafter. At this time, fluorescein isothiocyanate-dextran (FD4) was used as a paracellular marker, and metoprolol was used as a transcellular marker to confirm the change in permeability coefficient according to bile acid derivative treatment. […]

For series [3], the system named is Caco-2 cell monolayer. The series is classed as in vitro ADME. The procedure: First, to form a Caco-2 cell monolayer, 1.5×10^5 cells per well were dispensed in a 12-Transwell plate and this was cultured for 3 to 4 weeks under 37° C. CO2 conditions. For the first week, the culture medium was changed once every two days, and thereafter, the culture medium was changed every three days. In the experiment, samples between 3 and 4 weeks after seeding were used. To verify the formation of a cell monolayer, TEER values and Lucifer yellow values were measured; only cell monolayer membranes having a TEER value of 300 Ω·cm^2 or more and a measured transmittance of Lucifer yellow within 3% were used in the test. After washing the Transwell to be used for each test using transport media (HBSS), incubation was performed for 1 hour in a 37° C. CO2 incubator; then, 500 μL each of large physiologically active substance (50 μM) and bile acid derivatives (100 μM) were added to the apical side, and 1.5 mL of drug-free transport media was treated onto the basolateral side. Subsequently, incubation was performed for 2 hours in a 37° C. CO2 incubator.
[formula] • (*dCr-concentration of the permeated sample, dt-drug treatment time, Vr-basolateral volume, A-Transwell area, C0-initial applied drug concentration)
This is another data set of the same source.

Series [4] in a line: Cmax after duodenal administration of Compounds 23 and 24. Details: species or system experimental rats. As to conditions: rat, in vivo; rats, duodenum; CDC 68 mg/kg, PG 34 mg/kg; Compound 23 5.4 mg/kg, Compound 24 6.2 mg/kg. The procedure:
A large physiologically active substance (Compound 24) was formulated by dissolving it in the corresponding vehicle (0.02% polysorbate 80 in 10 mM PBS (pH 7.4)) with the excipient composition shown in Table 6 above. After administering the above formulation to the duodenum of experimental rats, Cmax was compared. The corresponding results were compared with the results obtained by administering Compound 23, a large physiologically active substance without a biotin moiety, in the same formulation, and are shown in Table 7 below.

For series [5], the system named is monolayer membrane of Caco-2 cells. Briefly: Tight junction openness by change in TEER value, Caco-2 monolayer. The series is classed as cell-based. As to conditions: apical treatment, 0-120 min, FIG. 2. The procedure: First, to form a Caco-2 cell monolayer, 1.5×10^5 cells per well was dispensed in a 12-Transwell plate and cultured for 3 to 4 weeks under 37° C. CO2 conditions. For the first week, the culture medium was changed once every two days, and thereafter, the culture medium was changed every three days. In the experiment, samples between 3 and 4 weeks after seeding were used. To evaluate the degree of damage to the Caco-2 cell monolayer by excipients, the degree of cells cultured as a monolayer on a semi-permeable membrane was measured by the difference in electrical resistance between the apical side and the basolateral side. First, the Transwell to be used in each test is washed using a washing buffer (HBSS), replaced by culture medium, and equilibrated in a 37° C. CO2 incubator for 15 minutes. After adding 500 μL of the prepared excipient to the apical side and treating the basolateral side with 1.5 mL of culture medium containing no excipient, changes in TEER values were measured using a Millicell ERS-2 Voltohmmeter at each time point (0, 5, 15, 30, 45, 60, 90, 120 min) from the time of treatment.

Series [6] is described as follows: Weight loss, appetite suppression and anti-diabetic efficacy, oral Compound 17 formulation in obese mice. The series is classed as in vivo, mice (C57BL/6). As to conditions: high-fat diet obese C57BL/6 mice; Compound 17 300 to 1000 nmol/kg oral daily 3 weeks; CDC 6.8, UDC 13.6, PG 13.6 mg/mL; FIGS. 11 to 13. The protocol:
After oral administration of a formulation containing a large physiologically active substance (Compound 17) and excipients to mice, changes in mouse body weight and anti-diabetic efficacy were confirmed. Specifically, the administered dose of Compound 17 used 300 to 1000 nmol/kg, and the excipient concentrations in the administered formulation used CDC 6.8 mg/mL, UDC 13.6 mg/mL, and PG 13.6 mg/mL. The vehicle used 0.02% polysorbate 80 in 10 mM PBS (pH 7.4). Obese mice were induced by feeding high-fat diet to 6-week-old male mice (C57BL/6) for 16 weeks; then weight changes were confirmed by oral administration of the GLP-1/Glucagon receptor dual agonist (Compound 17), which combines biotin and fatty acid moieties, every day for 3 weeks using a bile acid absorption accelerator formulation.

As for “26: Amylin, SEQ No. 14: KCNTATCATQRLANFLVHSSNNFGPILPPTNVGSNTY; K1: Lys-B1 (K*) ([Lys‑B1]CNTATCATQRLANFLVHSSNNFGPILPPTNVGSNTY; ends and bridges not checked) [Compound 26]”, the “body weight change after 24 hours” value in series [1] is given as “weight loss was confirmed”. The same measure, in the same setting: to “27: Amylin, SEQ No. 14: KCNTATCATQRLANFLVHSSNNFGPILPPTNVGSNTY; K1: αLys-EG2-Glu-C18 (*K); K1: Lys-B1 (K*) ({C18-Glu-EG2}-[Lys‑B1]CNTATCATQRLANFLVHSSNNFGPILPPTNVGSNTY; not fully specified; ends and bridges not checked) [Compound 27]” belongs “weight loss was confirmed”.

Consider “29: Amylin, SEQ No. 15: KCNTATCATQRLADFLRHSSPNFGAIPSSTNVGSRTY; K1: Lys-B1 (K*) ([Lys‑B1]CNTATCATQRLADFLRHSSPNFGAIPSSTNVGSRTY; ends and bridges not checked) [Compound 29]”, for which the “body weight change after 24 hours” value in series [1] is “weight loss was confirmed”. Still for that read-out and setting: to “30: Amylin, SEQ No. 15: KCNTATCATQRLADFLRHSSPNFGAIPSSTNVGSRTY; K1: αLys-EG2-Glu-C18 (*K); K1: Lys-B1 (K*) ({C18-Glu-EG2}-[Lys‑B1]CNTATCATQRLADFLRHSSPNFGAIPSSTNVGSRTY; not fully specified; ends and bridges not checked) [Compound 30]” belongs “weight loss was confirmed”; to “32: Amylin, SEQ No. 16: KCNTATCATQRLADFLRHSSNNFGAIPSSTNVGSRTY; K1: Lys-B1 (K*) ([Lys‑B1]CNTATCATQRLADFLRHSSNNFGAIPSSTNVGSRTY; ends and bridges not checked) [Compound 32]”, “weight loss was confirmed”. “33: Amylin, SEQ No. 16: KCNTATCATQRLADFLRHSSNNFGAIPSSTNVGSRTY; K1: αLys-EG2-Glu-C18 (*K); K1: Lys-B1 (K*) ({C18-Glu-EG2}-[Lys‑B1]CNTATCATQRLADFLRHSSNNFGAIPSSTNVGSRTY; not fully specified; ends and bridges not checked) [Compound 33]”: the “body weight change after 24 hours” value in series [1] is listed as “weight loss was confirmed”. On the same count and under the same terms, under “35: Amylin, SEQ No. 17: RCNTATCATQRLADFLRHSSNNFGAIPSSTNVGSKTY; K35: Lys-B1 (K*) (RCNTATCATQRLADFLRHSSNNFGAIPSSTNVGS[Lys‑B1]TY; ends and bridges not checked) [Compound 35]” stands “weight loss was confirmed”. With “36: Amylin, SEQ No. 17: RCNTATCATQRLADFLRHSSNNFGAIPSSTNVGSKTY; R1: αArg-EG2-Glu-C18 (*R); K35: Lys-B1 (K*) ({C18-Glu-EG2}-RCNTATCATQRLADFLRHSSNNFGAIPSSTNVGSKTY; not fully specified (some residues); ends and bridges not checked) [Compound 36]”, the “body weight change after 24 hours” value in series [1] is given as “weight loss was confirmed”. For the molecule `C[C@H](CCC(=O)O)[C@H]1CC[C@H]2[C@@H]3[C@H](O)C[C@@H]4C[C@H](O)CC[C@]4(C)[C@H]3CC[C@]12C` [CDC, Chenodeoxycholic acid or its salt], the “cytotoxicity (cell viability)” value with Caco-2 cells was “similar”. For the same molecule, in the series on Caco-2 cell monolayer [2], the “effect on paracellular (FD4) and transcellular (metoprolol) transport” value is “promotes both paracellular transport and transcellular transport”. Moreover, the “effect of improving the permeability of large physiologically active substances” value with Caco-2 cell monolayer [3] was “had an effect of improving the permeability”. `CC[C@H](C)[C@H](NC(=O)[C@H](CCC(=O)O)NC(=O)[C@H](CO)NC(=O)[C@@H](NC(=O)[C@@H](N)CO)C(C)C)C(=O)N[C@@H](CCC(N)=O)C(=O)N[C@@H](CC(C)C)C(=O)N[C@@H](CCSC)C(=O)N[C@@H](Cc1cnc[nH]1)C(=O)N[C@@H](CC(N)=O)C(=O)N[C@@H](CC(C)C)C(=O)NCC(=O)N[C@@H](CCCCN)C(=O)N[C@@H](Cc1cnc[nH]1)C(=O)N[C@@H](CC(C)C)C(=O)N[C@@H](CC(N)=O)C(=O)N[C@@H](CO)C(=O)N[C@@H](CCSC)C(=O)N[C@@H](CCC(=O)O)C(=O)N[C@@H](CCCN=C(N)N)C(=O)N[C@H](C(=O)N[C@@H](CCC(=O)O)C(=O)N[C@@H](Cc1c[nH]c2ccccc12)C(=O)N[C@@H](CC(C)C)C(=O)N[C@@H](CCCN=C(N)N)C(=O)N[C@@H](CCCCN)C(=O)N[C@@H](CCCCN)C(=O)N[C@@H](CC(C)C)C(=O)N[C@@H](CCC(N)=O)C(=O)N[C@@H](CC(=O)O)C(=O)N[C@H](C(=O)N[C@@H](Cc1cnc[nH]1)C(=O)N[C@@H](CC(N)=O)C(=O)N[C@@H](Cc1ccccc1)C(=O)O)C(C)C)C(C)C` [Compound 23]: the concentration in series [4] peaked (Cmax) at 30 ng/mL. Take `C[C@H](CCC(=O)O)[C@H]1CC[C@H]2[C@@H]3CC[C@@H]4C[C@H](O)CC[C@]4(C)[C@H]3C[C@H](O)[C@]12C` [DC, Deoxycholic acid or its salt]: in the series on Caco-2 cells, the “cytotoxicity (cell viability)” value is given as “similar”. `CCCOC(=O)c1cc(O)c(O)c(O)c1` [PG, Propyl gallate]: the “tight junction openness according to the change in TEER value” in series [5] is reported as “non-tight junction openness”. `C[C@H](CCC(=O)O)[C@H]1CC[C@H]2[C@@H]3[C@@H](O)C[C@@H]4C[C@H](O)CC[C@]4(C)[C@H]3CC[C@]12C` [UDC, Ursodeoxycholic acid or its salt]: the “cytotoxicity (cell viability)” value with Caco-2 cells is “least cytotoxicity”. Besides, the “tight junction openness according to the change in TEER value” in series [5] was “non-tight junction openness”. Also, in the series with Caco-2 cell monolayer [2], the “effect on paracellular (FD4) and transcellular (metoprolol) transport” value is recorded as “no enhancing effect on the two transport mechanisms”. With “Compound 17: GLP-1/GCGRA, SEQ No. 8: H-Aib-QGTFTSDYSKYLDEQAAKEFVQWLMNTK; (Lactam) between E16 and K20; K12: Lys-B1 (K*); K30: Lys-EG2-Glu-C18 (K*) (H-H[Aib]QGTFTSDYSKYLDEQAAKEFVQWLMNTK([EG2-Glu-C18]); lactam 16-20; not fully specified (residue 12); reading uncertain)”, in series [6], the anti-diabetic efficacy entry is recorded as “anti-diabetic effect”, the body weight change result is given as “weight loss” and the feed intake entry was “reduction of feed intake”.
